Measurements reported in patent US10899815B2, “Compositions and methods of using islet neogenesis peptides and analogs thereof” (SHENZHEN HIGHTIDE BIOPHARMACEUTICAL, LTD., priority 2013, dated 2021).
Ends that are not written are not given here.

Legend:
[1] = Peptide stability in mouse plasma; assay type: in vitro ADME; conditions: 100 μg/mL, 37° C., LC-MS/MS, FIG. 3 and FIG. 5
Experimental: The stability of peptides was also tested in mouse and human plasma. Briefly, a certain amount of peptides and eucatropine powder (positive control) was accurately weighed. Test compounds were dissolved in 50% methanol-water solution and diluted to 20 mg/mL, and eucatropine was dissolved in dimethylsulfoxide (DMSO) and diluted to 10 mM, as a stock solution. Eucatropine stock solution was diluted to 0.2 mM with DMSO as a working solution. A stop reagent was prepared containing 200 ng/mL midazolam and tolbutamide in acetonitrile. A volume of 300 μL of stop solution was added to each well of a 96-well deep-well plate placed on ice beforehand.
For the stability studies, peptides and eucatropine were spiked into plasma respectively, mixed well, and then 100 μL of each mixture solution was transferred into the pre-cooled stop reagent as 0 time point sample. The remaining mixtures were incubated in a 37° C. water bath with shaking at 100 rpm (n=2). The final incubation concentration was 1 μM for eucatropine and 100 μg/mL for all test compounds.
At desired time points, 100 μl, of incubation mixture was transferred to the stop reagent to precipitate proteins. Samples were vortexed and centrifuged at RCF 5000-g for 10 minutes, and supernatant was transferred to a test plate. The samples were analyzed by LC-MS/MS.
Slope was calculated by plotting the natural logarithm of the percentage or remaining amount of test compounds and time, and T12 was calculated in accordance with the following formula.
For stability in mouse plasma, the incubation time was 0, 5, 15, 30 and 60 min for Peptide 1 and eucatropine, 0, 15, 30, 60, 120, 240 and 480 min for Peptide 12, Peptide 16 and Peptide 29.
In another stability study in mouse plasma, the incubation time was 0, 30, 60 and 120 min for Peptide 2 and eucatropine; 0, 30, 60, 120, 240 and 960 min for Peptide 52 and Peptide 54.

normal C57BL/6J mice = experiment: Induction of small β-cell clusters in normal mice; assay type: in vivo; conditions: for number of islets, islet size ranging from 2.1 to 0.7: normal female C57BL/6J mice, 25 mg/kg per day for 10 days, islet size as Log [μm^2], FIG. 7; for body weight, blood glucose, plasma insulin, pancreas insulin, or pancreas weight: compared to saline group
Experimental: After a 1-week acclimation, C57BL/6J female mice were randomly divided into 4 groups. The two control groups received either 10 mL/kg sterile normal saline (n=4) or scrambled peptide (Peptide 3, 25 mg/kg) (n=5) via subcutaneous injection for 10 days. The other two groups received INGAP-PP (Peptide 1) or INGAP-PP analog Peptide 7 at a dose of 25 mg/kg per day respectively (n=7 per group) for the same period. Body weight and 6 hour fasting blood glucose were measured before treatment and after the last dosing of treatment. Plasma and pancreatic insulin were also measured at the end of the study. On day 11, the pancreas was removed from each animal, cleared of fat and lymph nodes, weighed, and fixed in 10% neutral buffered formalin (NBF) for no longer than 24 hours before processing for morphometric analysis.
Immunohistochemistry analysis was used to determine pancreatic islet size distribution.

[2] = Peptide stability in culture medium; assay type: physicochemical; conditions: F-12K medium, 0.25 mg/mL, 37° C., 0-72 hours, HPLC, FIG. 2
Experimental: To determine the stability of peptides in culture medium, a certain amount of selected peptides was accurately weighed and dissolved in distilled water to 5 mg/mL as a stock solution. The stock solution was diluted to 0.25 mg/mL with F-12K medium (Gibco-BRL, Gaithersburg, Md., USA) as working solution. A volume of 100 μL of each working solution was transferred into individual sample vials. The sample vials were incubated in a 37° C. incubator for 0, 24, 48 and 72 hours before being analyzed and quantitated by HPLC.

ARIP cells = experiment: ARIP cell proliferation (BrdU ELISA / CellTiter-Glo); assay type: cell-based, rat; conditions: 100 nM peptide, FIG. 1
Experimental: To measure cell proliferation, a bromodeoxyuridine (BrdU) ELISA assay was performed. Briefly, ARIP cells (ATCC (American Type Culture Collection), Manassas, Va. USA), a rat pancreatic ductal cell line, were cultured in F-12K medium (Gibco-BRL, Gaithersburg, Md., USA) containing 10% fetal bovine serum (FBS; HyClone, Thermo Fisher Scientific Inc.; Waltham, Mass. USA), 100 μg/ml streptomycin and 100 μg/ml penicillin in a cell incubator. ARIP cells were seeded into 96-well culture plates at 8000 or 0 (as blank control) cells/well in a volume of 50 μl cell culture medium and incubated overnight for the following experiments. On the second day, after replacing the medium with medium without serum, 50 μl serum-free cell culture medium containing test peptides at a series concentrations (final concentrations were 10 μM, 5 μM, 1 μM, 500 nM, 100 nM, 50 nM, 10 nM and 1 nM) were added to seeded cells. Medium without compound was added to negative control and background control wells. […] The absorbance at 450 nm (reference wavelength 690 nm) on an EnVision™ plate reader (Perkin Elmer, Boston, Mass.) within 5 min. after adding the stop solution was measured.
To test for cell viability, a CellTiter-Glo™ (CTG) assay (Promega, Madison, Wis.) was performed. […] Luminescence signal was quantified on an EnVision™ plate reader after a 10 minute incubation at room temperature.

[3] = test system: STZ induced diabetic mice model; experiment: Efficacy in streptozotocin (STZ) induced diabetic mice model; assay type: in vivo, C57BL/6J mice; conditions: for body weight or pancreas weight: 5 mg/kg or 25 mg/kg for 20 days
Experimental: After acclimatization in the animal facility for one week, 6-8 weeks old C57BL/6J mice were administered low dose STZ at 40 mg/kg in citrate buffer for 5 consecutive days to establish a TID animal model. Mice with blood glucose greater than 16.7 mmol/L at 5 days post last STZ injection were included in the study. These mice were then treated with INGAP-PP (Peptide 1) or Peptide 7 at the closes of 5 mg/kg (2.5 mg/kg, bid (twice a day)) or 25 mg/kg (12.5 mg/kg, bid) for 20 days before sacrifices. Two additional groups of diabetic mice were administered either saline or a peptide (Peptide 3) composed of a scrambled sequence of amino acids from Peptide 1 as control groups. Blood glucose and insulin levels were measured, and 20 days post the last dosing of test agents, an oral glucose tolerance test (OGTT) was performed in 6 hour fasted animals to determine the effect of Peptide 1 and Peptide 7. Blood samples obtained from the tail cut for glucose determination were detected with an ACCU-CHEK™ glucometer (Roche, ACCU-CHEK® Active), and insulin levels were determined with Rat/Mouse Insulin Elisa kit (Millipore, Billerica, Mass. USA). For the OGTT, after the measurement of the basal glucose concentration (T=−30 min), mice received an oral glucose challenge at 2 g/kg and glucose values were determined by glucometer at 0, 15, 30, 60, 90 and 120 min.

pancreatic islets = experiment: Glucose-stimulated insulin secretion (GSIS) of isolated islets; assay type: cell-based, Sprague-Dawley (SD) rats; conditions: rat islets, 12.0 mM glucose, 10 μg/mL peptide (GLP-1 100 nM), 60 min, FIG. 8
Experimental: The pancreases were procured from male adult Sprague-Dawley (SD) rats. After 7 days acclimation, the animals were sacrificed by cervical dislocation and the entire pancreas was removed and digested with collagenase to isolate islets. After digestion, islets were maintained at 37° C. in RPMI 1640 (Carlsbad, Calif., USA) pH 7.4, containing 10% (v/v) fetal calf serum, 1% penicillin/streptomycin, and 10 mM glucose in a humid atmosphere (5% CO2/95% O2), without the addition of any compound (control), or with the addition of 100 nM glucagon like peptide-1 (GLP-1); or 10 μg/mL Peptide 1, Peptide 12, or Peptide 16, as summarized in Table 4 below. Cultured islets were rinsed in Krebs-Ringer bicarbonate buffer (KRB), pH 7.4, previously gassed with a mixture CO2/O2 (5/95%), and pre-incubated in 1.0 ml KRB containing 0.5% (w/v) BSA and 1.5 mM glucose at 37° C. for 45 min. After this period, groups of 5 islets were incubated in 0.6 ml KRB with the addition of 1.5 or 12.0 mM glucose, with or without the addition of peptides for 60 min. At the end of the incubation period, aliquots of the medium were collected for insulin quantitation.

Pharmacokinetics in rat = assay type: in vivo, Sprague-Dawley (SD) rats; conditions: rat, in vivo, 25 mg/kg
Experimental: After 7 days acclimation, male Sprague-Dawley (SD) rats weighing 210-250 g, or male C57BL/6 mice, weighing 19-24 g, in good health were used in the study. Peptide 1, Peptide 12 and Peptide 16 were dissolved in sterile normal saline and then they were injected via subcutaneous (sc) bolus or intravenous (iv) bolus at the dose level of 25 mg/kg. Three animals in each group were used for blood collection at the time point of 5 min, 15 min, 30 min, 1 h, 2 h, 4 h, 6 h, 8 h and 24 h post-dose. Blood samples (approximately 400 μL) were collected and placed into tubes containing EDTA-K2 and centrifuged at 8000 rpm for 6 minutes at 4° C. to separate plasma front the samples. The resulting plasma was stored frozen at −80° C. until being analyzed. Plasma concentrations of peptides were determined using tandem mass spectrometry (LC-MS/MS) analysis. A non-compartmental module of WinNonlin® Professional 5.2 (Pharsight; St. Louis, Mo.), was used to calculate PK parameters. The abbreviation AUC(0-t) represents area under the curve front the time of dosing to the time of the last observation, the AUC(0-∞) represents area under the curve from the time of dosing to infinity, and the Cmax represents maximum concentration detected.

[4] = normal mice, 25 mg/kg sc for 10 days

In the case of “Ac-IGLHDPTQGTEPAGE-OH [Peptide 52, Ac-IGLHDPTQGTEPAGE-OH]”, the “stability in mouse plasma” value [1] is reported as “good stability in mouse plasma and were significantly more stable than HIP”.

For “H-IGLHDPSHGTLPAGS-OH [Peptide 7, H-IGLHDPSHGTLPAGS-OH]”, the “number of islets, islet size ranging from 2.1 to 0.7” value (normal C57BL/6J mice) was “increased significantly”, the “body weight, blood glucose, plasma insulin, pancreas insulin, or pancreas weight” value (“body weight, blood glucose” for short) (normal C57BL/6J mice; [4]) was “did not affect” and the “stability in culture medium” value [2] was “significantly more stable than INGAP-PP peptide”. The “percentage increase in cell number” value (ARIP cells) was “significantly higher percentage increase in cell number”, the “body weight or pancreas weight” value [3] was “did not affect” and the plasma insulin levels ([3]; 25 mg/kg dose group, end of 20-day period, FIG. 6B) was “significantly different from saline controls and almost restored to the level of the naive group”. For the same substance, the “glucose tolerance (OGTT)” value ([3]; OGTT 2 g/kg glucose, day 21, FIG. 6C) was “improved glucose tolerance”.

With “H-IGLHDPSHGTLPNGS-OH [Peptide 1, H-IGLHDPSHGTLPNGS-OH, reference compound]” the “number of islets, islet size ranging from 2.1 to 0.7” value (normal C57BL/6J mice) was “only observed in islet size of 2.1”, the “body weight, blood glucose” value (normal C57BL/6J mice; [4]) was “did not affect” and the “glucose-stimulated insulin secretion versus islets without peptides” value (pancreatic islets) was “no stimulation”. The “body weight or pancreas weight” value [3] was “did not affect”.

In the case of H-IGLHAPSHGTLPAGS-OH [Peptide 8], the “stability in culture medium” value [2] is reported as “significantly more stable than INGAP-PP peptide”.

With “Ac-IGLHDPSHGTLPAGS-NH2 [Peptide 29, Ac-IGLHDPSHGTLPAGS-NH2]” the “stability in mouse plasma” value [1] was “good stability in mouse plasma and were more stable than INGAP-PP”.

In the case of “Ac-IGLHDPSHGTLPAGS-OH [Peptide 12, Ac-IGLHDPSHGTLPAGS-OH]”, the “PK properties (AUC and Cmax) compared to INGAP-PP” value (Pharmacokinetics in rat) is reported as “marked improved PK properties” and the “glucose-stimulated insulin secretion versus islets without peptides” value (pancreatic islets) is reported as “released significantly more insulin”.

For “Ac-IGLHDPTQGTEPNGE-OH [Peptide 54, Ac-IGLHDPTQGTEPNGE-OH]”, the “stability in mouse plasma” value [1] was “good stability in mouse plasma and were significantly more stable than HIP”.

With “GLP-1: Glucagon like peptide-1, positive control at 100 nM in GSIS (HAEGTFTSDVSSYLEGQAAKEFIAWLVKGR; ends and bridges not checked; UniProt P01275 98-127, looked up) [reference compound]” the “glucose-stimulated insulin secretion versus islets without peptides” value (pancreatic islets) was “released significantly more insulin”.

With “H-SHPNGSGTIGLHDPL-OH [Peptide 3, H-SHPNG SGTIG LHDPL-OH]” the “all parameters measured, versus normal saline” value (normal C57BL/6J mice; [4]) was “no difference” and the “body weight, blood glucose” value (normal C57BL/6J mice; [4]) was “did not affect”.
